Measured values from ChEMBL document CHEMBL1201862, “PubChem BioAssay data set” (2004).
Activity calls are given as the source filed them.

Key:
[1] = off-target signal loss in HeLa-CEM21 co-culture – HeLa F-luc CTL cells, cherry-picked, counter-screen for HIV-1 Env fusion inhibitor project, dose response (AID 652040); type: functional, cell-based;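 further: potency for signal decrease marking cytotoxic or nonspecific inhibition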
[2] = blockers of HIV-1 ZM109 envelope-driven cell-cell fusion – HeLa effector, CEM target cells, luciferase, cherry-pick, dose response (AID 652058); type: functional, cell-based;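 further: luciferase signal from HIV-1 Env mediated cell-cell fusion of effector and target cells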
[3] = HIV-1 AD8 envelope cell-cell fusion blockers – cherry-pick, dose response (AID 652062); type: functional, cell-based;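 further: luciferase signal from cell-cell fusion driven by HIV-1 clade B AD8 Env; potency is for inhibitors of fusion seen as a drop in luminescence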
[4] = blockers of HIV-1 envelope-mediated cell-cell fusion – cherry-pick, dose response (AID 652057); type: functional, cell-based
[5] = test system: P388; test: cells; type: functional; settings: Mus musculus
[6] = test system: P388/ADR; test: cells; type: functional; settings: Mus musculus
[7] = test system: SN12K1; test: cells; type: functional; settings: Homo sapiens
[8] = test system: HEK293; test: EBV LMP1 TES2 canonical NF-kB signalling blockers – cell-based, HEK293, luciferase, cherry-pick, dose response (AID 588343); type: functional; settings: Homo sapiens
[9] = blockade of melanocortin 4 receptor signaling – cell-based, plate reader, cherry pick, counter-screen for LGR2 antagonist project, dose response (AID 743444); type: functional;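 further: transfected HEK 293 cells stimulated with alpha-MSH peptide; potency of inhibitors of the alpha-MSH evoked signal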
[10] = blockers of bursicon-stimulated LGR2 cAMP reporter – cell-based, HEK293, CRE-luciferase reporter, cherry pick, set 2, dose response (AID 743343); type: functional;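 further: transfected cells were stimulated with diluted bursicon conditioned medium after compound addition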
[11] = reduction of Shn3 3'UTR-driven luciferase in osteoblasts – cell-based, Clone20 osteoblasts, firefly luciferase, cherry-picked, dose response (AID 624132); type: functional;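 further: firefly luciferase luminescence from reporter carrying the Shn3 3'UTR in osteoblasts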
[12] = non-specific 3'UTR reporter inhibition in Clone20-Shn3RL – cell-based, Renilla luciferase, cherry-picked, counter-screen for Shn3 inhibitor project, dose response (AID 624133); type: functional
[13] = loss of viability in HepG2 cells – cell-based, CellTiter-Glo, cherry-picked, cytotoxicity control for Shn3 inhibitor project, dose response (AID 624134); type: functional
[14] = luciferase reporter signal suppression in cells – H4 neuroglioma cells, luminescence, dose response (AID 1990); type: functional, cell-based
[15] = alpha-synuclein stem-loop luciferase translation blockers – H4 neuroglioma cells, luminescence, confirmation (AID 1988); type: functional, cell-based
[16] = Luminescence Cell-Based Dose Confirmation HTS to Identify Inhibitors of Platelet Dense Granule Release. [Related pubchem assays: 1663 (Primary HTS), 1678 (Summary of Project)]; type: functional
[17] = target: Luciferin 4-monooxygenase (Photinus pyralis, UniProt P08659); test: inhibition of purified Photinus pyralis luciferase – biochemical, luminescence, dose response (AID 1891)
Luciferin 4-monooxygenase, sequence (P08659 whole entry): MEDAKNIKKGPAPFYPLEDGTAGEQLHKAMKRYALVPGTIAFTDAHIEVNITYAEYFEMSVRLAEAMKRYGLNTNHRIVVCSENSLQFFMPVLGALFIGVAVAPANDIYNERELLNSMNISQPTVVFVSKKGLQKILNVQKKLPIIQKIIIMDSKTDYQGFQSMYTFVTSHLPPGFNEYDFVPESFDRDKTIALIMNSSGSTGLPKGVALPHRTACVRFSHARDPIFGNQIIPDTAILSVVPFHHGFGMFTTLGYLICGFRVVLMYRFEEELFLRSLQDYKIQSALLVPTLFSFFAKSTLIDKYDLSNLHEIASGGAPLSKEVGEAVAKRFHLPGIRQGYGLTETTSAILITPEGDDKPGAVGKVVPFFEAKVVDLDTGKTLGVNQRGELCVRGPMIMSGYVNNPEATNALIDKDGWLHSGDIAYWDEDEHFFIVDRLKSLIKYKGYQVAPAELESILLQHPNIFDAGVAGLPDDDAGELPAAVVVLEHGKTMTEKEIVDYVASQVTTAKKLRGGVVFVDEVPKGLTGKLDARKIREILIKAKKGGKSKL

[18] = Luminescence Cell-Based Dose Response HTS to Identify Inhibitors of 5'UTR Stem-Loop Driven Prion Protein mRNA Translation in H4 Neuroglioblastoma Cells. [Related pubchem assays: 1827 (Project Summary), 1813 (Primary HTS)]; type: functional
[19] = target: Cytochrome P450 2C9 (Homo sapiens, UniProt P11712)
Cytochrome P450 2C9, sequence (P11712 whole entry): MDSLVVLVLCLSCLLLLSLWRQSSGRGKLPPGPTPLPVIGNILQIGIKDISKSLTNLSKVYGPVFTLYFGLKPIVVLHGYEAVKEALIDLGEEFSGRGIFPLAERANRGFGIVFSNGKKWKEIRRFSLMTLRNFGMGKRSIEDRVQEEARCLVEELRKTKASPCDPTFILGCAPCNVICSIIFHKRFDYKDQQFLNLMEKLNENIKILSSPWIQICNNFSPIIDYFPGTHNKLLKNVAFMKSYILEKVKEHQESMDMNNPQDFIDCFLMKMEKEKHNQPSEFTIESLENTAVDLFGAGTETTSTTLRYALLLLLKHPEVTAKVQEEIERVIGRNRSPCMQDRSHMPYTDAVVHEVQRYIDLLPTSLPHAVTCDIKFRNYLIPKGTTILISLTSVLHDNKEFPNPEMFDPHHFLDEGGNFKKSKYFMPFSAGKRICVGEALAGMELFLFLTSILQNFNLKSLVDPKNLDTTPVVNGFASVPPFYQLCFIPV

With `CCN(C[C@H]1N[C@@](C)(C(=O)OC)[C@H]2C(=O)N(Cc3ccccc3)C(=O)[C@@H]12)S(=O)(=O)c1ccc(C)cc1` the AC50 [1] was 21.4 µM (active), the AC50 [2] was 15 µM (active) and the AC50 [3] was 69.3 µM (active). For the same compound, the AC50 [4] was 5.73 µM (active).

With `O=C(Cn1ccnc1[N+](=O)[O-])N(CCO)CCO` the GI50 [5] was > 1250 µM (inactive), the GI50 [6] was > 1250 µM (inactive) and the GI50 [7] was > 1250 µM (inactive).

For `C[C@H]1CN([C@@H](C)CO)C(=O)Cc2cc(NC(=O)Cc3ccccc3)ccc2O[C@H]1CN(C)S(=O)(=O)c1cccs1`, the AC50 [1] was 2.4 µM (active), the AC50 [2] was 2.26 µM (active) and the AC50 [3] was 3.35 µM (active). The AC50 [4] was 1.48 µM (active).

With `CCN1CCN(Cc2ccc(NC(=O)c3ccc(C)c(NC(=O)c4ccno4)c3)cc2C(F)(F)F)CC1` the AC50 [8] was 0.0518 µM (active).

In the case of `CCOC(=O)C1=C(C(C)=O)CSC(c2ccccc2)=N1`, the GI50 [5] is reported as > 100 µM (inactive), the GI50 [6] is reported as 68.5 µM (inactive) and the GI50 [7] is reported as > 100 µM (inactive).

In the case of `O=C(c1ccccc1O)c1cc(-c2ncc3c(=O)c4ccccc4oc3n2)c(-c2ccccc2O)[nH]c1=O`, the GI50 [5] is reported as 19.7 µM (inactive), the GI50 [6] is reported as 22.4 µM (inactive) and the GI50 [7] is reported as 17.5 µM (inactive).

For `COc1cccc(-c2nc3c(C(=O)NCCN(C)C)cccc3[nH]2)c1`, the GI50 [5] was 4.45 µM (inactive), the GI50 [6] was 13.7 µM (inactive) and the GI50 [7] was 12.4 µM (inactive).

With `COC(=O)C(C/C=C(\C)c1ccccc1)C(C)=O` (stereo not given) the GI50 [5] was 27.2 µM (inactive), the GI50 [6] was 29 µM (inactive) and the GI50 [7] was 45.2 µM (inactive).

For `COC(=O)[C@]1(c2ccc(N(C)C)cc2OC)C[C@@H]2CCCN(CCc3c1[nH]c1ccccc31)C2`, the GI50 [5] was 16.7 µM (inactive), the GI50 [6] was 18.1 µM (inactive) and the GI50 [7] was 17.4 µM (inactive).

With `COc1ccc(OC)c(CN2C(=O)c3ccccc3C2c2nnnn2-c2c(C)cccc2C)c1` (stereo not given) the AC50 [1] was 19 µM (active), the AC50 [2] was 3.93 µM (active) and the AC50 [4] was 4.69 µM (active).

With `COc1cc(C2c3cc4c(cc3[C@@H](Nc3ccc(F)cc3)C3COC(=O)[C@H]23)OCO4)cc(OC)c1O` (stereo not given in full) the GI50 [5] was < 0.01 µM (active) and the GI50 [6] was 0.09 µM (active).

For `O=C(O)c1ccc(N/N=C/c2ccc3ncccc3c2)cc1`, the AC50 [8] was 2.54 µM (active), the AC50 [9] was 3.72 µM (active) and the AC50 [10] was 3.18 µM (active).

For `Cc1ccccc1CN1CC2=C(CCN(Cc3ccccc3)C2=O)N2CCN=C12`, the AC50 [11] was 2.41 µM (active), the AC50 [12] was 29.6 µM (active) and the AC50 [13] was 3.31 µM (active).

For `CC(C)(C)n1nc(-c2ccc(Cl)cc2)c2c(N)ncnc21`, the EC50 [14] was 7.3 µM (active), the EC50 [15] was 6.21 µM (active) and the EC50 [16] was 5.58 µM (active). For the same compound, the EC50 [17] was 23.3 µM (active), the AC50 [8] was 12.2 µM (active) and the EC50 [18] was 12.4 µM (active). For the same compound, the AC50 [19] was 7.08 µM (inconclusive).
